{
  "source": "patent US20150359798A1",
  "about": "“PIPERAZINYL DERIVATIVE REDUCES HIGH-FAT DIET-INDUCED ACCUMULATION OF FAT IN THE LIVERS, […]” (priority 2011, published 2015)",
  "key": {"[1]": {"test_system": "PKA", "assay": "Hepatic PKA expression (14-week experiment)", "type": "in vivo, mice", "settings": "drinking KMUP-1; protection and treatment groups"}, "[2]": {"test_system": "RhoA", "assay": "RhoA translocation from cytosol to membranes in HepG2 cells", "type": "cell-based", "experimental": "(§1) HepG2 cells were treated with various concentrations of drugs for 24 hours. Reactions were terminated by washing twice with cold PBS, and the cells were then harvested, Proteins in the whole-cell lysate were homogenized in an ice-cold lysis buffer and a protease inhibitor (Sigma-Aldrich, St. Louis, Mo., U.S.A.). The homogenate was centrifuged at 90, 000 g for 15 minutes at 4° C., and supernatant was recovered as the total cellular protein. Cytosolic and membrane fractions of HepG2 cells were prepared using a. CNM (Cytosol Nuclear Membrane) compartment protein extraction kit (BioChain Institute Inc., Hayward, Calif., U.S.A.) according to the manufacturer's instructions. All of the fractionated protein solutions were stored at −80° C. until analysis. To measure the expression levels of proteins by drugs, the total cell protein was extracted after incubation with treatments for 24 hours and then Western blotting analysis was performed as described previously."}, "[3]": {"test_system": "p-HSL", "assay": "Table 3 p-HSL (% of control)", "type": "cell-based", "settings": "control group = 100 (%)"}, "[4]": {"test_system": "ApoA-I", "assay": "ApoA-I expression in HepG2 cells", "type": "cell-based", "settings": "HepG2, 10^−9-10^−5 M", "experimental": "as §1"}, "[5]": {"test_system": "p-HSL", "assay": "IHC staining of p-HSL in steatohepatitis liver", "type": "in vivo, mice", "settings": "treatment and protection groups", "experimental": "(§2) In the 14-week experiment, mice were fed a HFD from week 1 to week 14. During the 3 month experiments, KMUP-1 HCl (2.5 mg) was added to 200 ml tap water and) and drink for 14 weeks or for the last 6 weeks on mice or obese mice fed HFD, separately. 5 mice had free access to drinking water from week 1 to week 14 (protective group) or from week 8 to week 14 (treatment group). Tap water was used to normalize mineral nutrition (Scheme A).\n(§3) For IHC of MMP-9/TNFα, HSL/p-HSL/ATGL and eNOS/IL-10, antigen retrieval of de-paraffinated sections was performed in Dako target retrieval solution, pH 9.0, in a vegetable steamer followed by the quenching of endogenous peroxidase activity with 3.0% H2O2 in methanol. Sections were then incubated with specific primary antibodies overnight at 4° C. in a humidified chamber. The antibodies used included rabbit polyclonal anti-eNOS (1:50 dilution) (Abcam, Cambridge, UK) or rabbit monoclonal anti-cleaved caspase-3 (1:50 dilution) (Cell Signaling, USA). The sections were then examined using a DAKO REAL EnVision™ Detection System kit (DAKO, Carpinteria, Calif.) and counterstained with hematoxylin. Images were obtained through a Nikon Eclipse TE200-S microscope."}, "[6]": {"test_system": "ROCK II", "assay": "ROCK II expression in HepG2 cells", "type": "cell-based", "experimental": "as §1, with “-80°” for “−80°”"}, "[7]": {"test_system": "TNF-α", "assay": "IHC staining of TNF-α in epididymal fat pads", "type": "in vivo, mice", "settings": "protection, 2.5 mg/kg/day", "experimental": "as §3"}, "[8]": {"test_system": "PKA", "assay": "PKA expression and immunoreactivity in HepG2 cells", "type": "cell-based"}, "[9]": {"test_system": "Rho-kinase", "assay": "Table 3 Rho-kinase (% of control)", "type": "cell-based", "settings": "control group = 100 (%)"}, "[10]": {"test_system": "SR-B1", "assay": "HFD-induced hepatic SR-B1 expression (14-week experiment)", "type": "in vivo, mice", "settings": "drinking KMUP-1", "experimental": "as §2\nFor the expression of SR-B1, HMGR, PPARγ and ROCK isolated liver tissues were cut into small chips and placed into an extraction buffer (Tris 10 mM, pH 7.0, NaCl 140 mM, PMSF 2 mM, DTT 5 mM, NP-40 0.5%, pepstatin A 0.05 mM and leupeptin 0.2 mM) for hepatic protein extraction, and centrifuged at 20,000 g for 30 minutes. The obtained protein extract was boiled to a ratio of 4:1 with a sample buffer (Tris 100 mM, pH 6.8, glycerol 20%, SDS 4% and bromophenol blue 0.2%). Electrophoresis was performed using 10% SDS-polyacrylamide gel (1 hour, 100 V, 40 mA, 20 μg protein per lane).\nSeparated proteins, after 3 repeated centrifugations to discard up-layer tissue lipid inpurity, were transferred to PVDF membranes treated with 5% fat-free milk powder to block the nonspecific IgGs (90 minutes, 100 V) and incubated for 1 hour with specific protein antibody. The blot was then incubated with anti-mouse or anti-goat IgG linked to alkaline phosphatase (1:1000) for 1 hour."}, "[11]": {"test_system": "MMP-9", "assay": "IHC staining of MMP-9 in steatohepatitis liver", "type": "in vivo, mice", "settings": "treatment and protection groups", "experimental": "as §2, §3"}},
  "data": [
    {"smiles": "Cn1c(=O)c2c(ncn2CCN2CCN(c3ccccc3Cl)CC2)n(C)c1=O", "note": "[KMUP-1, 7-[2-[4-(2-chlorophenyl)piperazinyl]ethyl]-1,3-dimethyl xanthine]", "values": [
      {"measurement": "hepatic PKA expression", "setting": "[1]", "value": "promote"},
      {"measurement": "translocation of RhoA from cytosol to membranes", "setting": "[2]", "value": "concentration-dependently inhibited"},
      {"measurement": "p-HSL", "setting": "[3]; 0.1 μM", "value": "120.7 ± 15.3", "unit": "%"},
      {"measurement": "p-HSL", "setting": "[3]; 1.0 μM", "value": "138.6 ± 14.7", "unit": "%"},
      {"measurement": "p-HSL", "setting": "[3]; 10 μM", "value": "144.6 ± 12.3", "unit": "%"},
      {"measurement": "ApoA-I expression", "setting": "[4]", "value": "concentration-dependently increased"},
      {"measurement": "p-HSL (IHC, liver)", "setting": "[5]", "value": "activation"},
      {"measurement": "ROCK II protein expression", "setting": "[6]; HepG2, 10^−9-10^−5 M", "value": "concentration-dependently reduced"},
      {"measurement": "Rp-8-pCPT-cGMPS-increased ROCK II expression", "setting": "[6]; HepG2, combination with KMUP-1 10 μM", "value": "inhibited"},
      {"measurement": "GGPP- and FPP-increased RhoA/ROCK II expression", "setting": "[6]; HepG2, in the presence of exogenous GGPP and FPP, 10^−9-10^−5M", "value": "attenuated"},
      {"measurement": "IHC staining of TNF-α in epididymal fat pads", "setting": "[7]", "value": "inhibited"},
      {"measurement": "PKA immunoreactivity (green fluorescence)", "setting": "[8]", "value": "increased"},
      {"measurement": "oxLDL (200 μg/mL)-induced reduction of PKA expression", "setting": "[8]; 1, 10, 100 μM", "value": "reversed"},
      {"measurement": "PKA protein expression", "setting": "[8]; 10, 20, 40 µM, in the presence of LDL (500 μg/mL)", "value": "could not significantly affect"},
      {"measurement": "Rho-kinase", "setting": "[9]; 0.1 μM", "value": "82.8 ± 7.8", "unit": "%"},
      {"measurement": "Rho-kinase", "setting": "[9]; 1.0 μM", "value": "78.4 ± 6.9", "unit": "%"},
      {"measurement": "Rho-kinase", "setting": "[9]; 10 μM", "value": "75.8 ± 6.4", "unit": "%"},
      {"measurement": "HFD-induced hepatic SR-B1 expression", "setting": "[10]", "value": "inhibit"},
      {"measurement": "antibody response to MMP-9 (IHC, liver)", "setting": "[11]", "value": "shaded by the treatment and almost disappeared in the protection group"}
    ]}
  ]
}
